This passage reports inhibition results from patent publication US8906925B2, “Pyrido[4,3-B]indoles containing rigid moieties” (Medivation Technologies, Inc., priority 2008, dated 2014).

Test [1] deals with T1, human recombinant serotonin (5-Hydroxytryptamine) 5-HT2A receptor (Homo sapiens, UniProt P28223).
T1 construct: expressed in transfected cells; host or cells: Chinese hamster ovary (CHO-K1) cells
Description: Serotonin 5-HT2A radioligand binding ([3H]Ketanserin). Particulars: for inhibition at 1 µM: read-out: Inhibition of ligand binding, Serotonin 5-HT2A (percent inhibition of specific binding), compound at 1 μM; for inhibition at 0.1 µM: read-out: Inhibition of ligand binding, Serotonin 5-HT2A (percent inhibition of specific binding), compound at 0.1 μM. The protocol:
Compounds of the invention were incubated with 0.5 nM [^3H]Ketanserin for 60 min. at 25° C. Non-specific binding was estimated in the presence of 1 μM Mianserin. Receptor proteins were filtered and washed, the filters were then counted to determine [^3H]Ketanserin specifically bound.

The target of test [2] is human recombinant serotonin (5-Hydroxytryptamine) 5-HT7 receptor (Homo sapiens, UniProt P34969). Put plainly: Serotonin 5-HT7 radioligand binding ([3H]LSD). Particulars: compound at 1 μM; read-out: Inhibition of ligand binding, Serotonin 5-HT7 (percent inhibition of specific binding). The text has this: Receptor proteins were filtered and washed, the filters were then counted to determine [^3H]LSD specifically bound.
Sequence of human recombinant serotonin (5-Hydroxytryptamine) 5-HT7 receptor (P34969 whole entry): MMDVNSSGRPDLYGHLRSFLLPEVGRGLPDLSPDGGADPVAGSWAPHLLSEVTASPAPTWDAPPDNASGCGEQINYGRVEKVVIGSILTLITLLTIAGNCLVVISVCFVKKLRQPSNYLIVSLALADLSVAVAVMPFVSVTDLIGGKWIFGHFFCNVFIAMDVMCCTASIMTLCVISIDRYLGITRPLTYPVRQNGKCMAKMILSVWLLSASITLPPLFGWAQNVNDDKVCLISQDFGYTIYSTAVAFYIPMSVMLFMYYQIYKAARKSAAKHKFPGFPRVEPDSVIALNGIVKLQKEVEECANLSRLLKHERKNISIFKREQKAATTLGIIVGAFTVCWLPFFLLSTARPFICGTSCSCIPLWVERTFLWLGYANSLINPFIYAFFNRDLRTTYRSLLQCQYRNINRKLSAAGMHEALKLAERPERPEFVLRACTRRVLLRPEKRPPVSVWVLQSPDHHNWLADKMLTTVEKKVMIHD

Test [3] concerns the target T2, human recombinant serotonin (5-Hydroxytryptamine) 5-HT2C receptor (Homo sapiens, UniProt P28335).
T2 construct: expressed in transfected cells; host or cells: Chinese hamster ovary (CHO-K1) cells
T2 sequence (P28335 33-458): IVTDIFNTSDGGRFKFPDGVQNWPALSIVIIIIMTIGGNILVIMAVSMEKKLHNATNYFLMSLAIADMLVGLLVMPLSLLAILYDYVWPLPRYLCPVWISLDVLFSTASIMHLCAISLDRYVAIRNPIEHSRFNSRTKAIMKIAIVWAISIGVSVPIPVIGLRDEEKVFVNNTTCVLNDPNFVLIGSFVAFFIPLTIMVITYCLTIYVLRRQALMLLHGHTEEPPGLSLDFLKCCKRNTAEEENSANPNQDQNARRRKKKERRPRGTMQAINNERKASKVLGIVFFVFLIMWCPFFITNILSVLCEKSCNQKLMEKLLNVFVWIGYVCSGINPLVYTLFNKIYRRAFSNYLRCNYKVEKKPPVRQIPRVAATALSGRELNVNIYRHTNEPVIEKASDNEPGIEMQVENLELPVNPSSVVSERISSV
Put plainly: Serotonin 5-HT2C radioligand binding ([3H]Mesulergine). Particulars: read-out: Inhibition of ligand binding, Serotonin 5-HT2C (percent inhibition of specific binding); for inhibition at 1 µM: compound at 1 μM; for inhibition at 0.1 µM: compound at 0.1 μM. A digest of the protocol:
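Compounds tested at 1 μM or lower (1% DMSO vehicle) for displacement of 1 nM [3H]Mesulergine over 60 min at 25° C. Specific binding determined by filtration counting, with 1 μM Mianserin defining non-specific binding; values are percent inhibition.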

Test [4] deals with T3, human recombinant serotonin (5-Hydroxytryptamine) 5-HT6 receptor (Homo sapiens, UniProt P50406).
T3 construct: expressed in transfected cells; host or cells: human HeLa cells
T3 sequence (P50406 whole entry): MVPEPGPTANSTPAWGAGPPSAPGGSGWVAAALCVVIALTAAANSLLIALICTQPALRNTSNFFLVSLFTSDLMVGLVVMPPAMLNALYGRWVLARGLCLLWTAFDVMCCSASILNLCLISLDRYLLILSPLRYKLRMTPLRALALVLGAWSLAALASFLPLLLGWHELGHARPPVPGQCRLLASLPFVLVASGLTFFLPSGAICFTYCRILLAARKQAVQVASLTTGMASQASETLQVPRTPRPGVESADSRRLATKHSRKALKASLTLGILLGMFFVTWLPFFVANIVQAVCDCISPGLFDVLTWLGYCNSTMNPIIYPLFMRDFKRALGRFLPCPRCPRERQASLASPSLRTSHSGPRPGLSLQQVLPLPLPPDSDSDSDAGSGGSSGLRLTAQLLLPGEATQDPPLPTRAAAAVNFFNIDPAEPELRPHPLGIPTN
Description: Serotonin 5-HT6 radioligand binding ([3H]LSD). Particulars: read-out: Inhibition of ligand binding, Serotonin 5-HT6 (percent inhibition of specific binding); for inhibition at 1 µM: compound at 1 μM; for inhibition at 0.1 µM: compound at 0.1 μM. The protocol: Compounds of the invention were incubated with 1.5 nM [3H]Lysergic acid diethylamide (LSD) for 120 min. at 37° C. […] Receptor proteins were filtered and washed, the filters were then counted to determine [3H]LSD specifically bound. Compounds were screened at 1 μM or lower, using 1% DMSO as vehicle. Biochemical assay results are presented as the percent inhibition of specific binding in Table 10.

In test [5] the target is T4, human recombinant adrenergic α1D receptor (Homo sapiens, UniProt P25100).
T4 construct: expressed in transfected cells; host or cells: human embryonic kidney (HEK-293) cells
T4 sequence (P25100 1-572): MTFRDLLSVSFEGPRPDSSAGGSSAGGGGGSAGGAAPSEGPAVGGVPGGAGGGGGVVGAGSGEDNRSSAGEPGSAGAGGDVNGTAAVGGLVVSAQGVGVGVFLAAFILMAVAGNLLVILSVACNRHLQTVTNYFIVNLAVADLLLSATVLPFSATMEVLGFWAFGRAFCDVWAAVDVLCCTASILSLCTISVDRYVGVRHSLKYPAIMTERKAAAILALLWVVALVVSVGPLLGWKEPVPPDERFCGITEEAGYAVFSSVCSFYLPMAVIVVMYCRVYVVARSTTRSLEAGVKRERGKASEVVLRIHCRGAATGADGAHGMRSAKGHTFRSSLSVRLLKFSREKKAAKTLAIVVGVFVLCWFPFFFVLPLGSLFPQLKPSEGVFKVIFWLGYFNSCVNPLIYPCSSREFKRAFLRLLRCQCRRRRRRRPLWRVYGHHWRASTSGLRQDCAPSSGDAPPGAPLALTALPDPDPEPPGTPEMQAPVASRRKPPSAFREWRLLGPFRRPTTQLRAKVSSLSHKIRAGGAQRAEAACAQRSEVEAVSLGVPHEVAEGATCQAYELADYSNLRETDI
Put plainly: Adrenergic α1D radioligand binding ([3H]Prozosin). The note with it: compound at 1 μM. The protocol: Compounds of invention were incubated with 0.6 nM [^3H]Prozosin for 60 min. at 25° C. Non-specific binding was estimated in the presence of 10 μM phentolamine. Receptor proteins were filtered and washed, the filters were then counted to determine [^3H]Prozosin specifically bound. Compounds were screened at 1 μM or lower, using 1% DMSO as vehicle. Biochemical assay results are presented as the percent inhibition of specific binding in Table 9.

The mark [6] stands for this setting: read-out: Inhibition of ligand binding, Adrenergic α1D (percent inhibition of specific binding).
Setting [7] is: percent inhibition of specific binding, read-out: Inhibition of ligand binding, Adrenergic α1D.

Like-named read-outs stand apart in the source and are kept apart here.

T1 sequence (P28223 whole entry): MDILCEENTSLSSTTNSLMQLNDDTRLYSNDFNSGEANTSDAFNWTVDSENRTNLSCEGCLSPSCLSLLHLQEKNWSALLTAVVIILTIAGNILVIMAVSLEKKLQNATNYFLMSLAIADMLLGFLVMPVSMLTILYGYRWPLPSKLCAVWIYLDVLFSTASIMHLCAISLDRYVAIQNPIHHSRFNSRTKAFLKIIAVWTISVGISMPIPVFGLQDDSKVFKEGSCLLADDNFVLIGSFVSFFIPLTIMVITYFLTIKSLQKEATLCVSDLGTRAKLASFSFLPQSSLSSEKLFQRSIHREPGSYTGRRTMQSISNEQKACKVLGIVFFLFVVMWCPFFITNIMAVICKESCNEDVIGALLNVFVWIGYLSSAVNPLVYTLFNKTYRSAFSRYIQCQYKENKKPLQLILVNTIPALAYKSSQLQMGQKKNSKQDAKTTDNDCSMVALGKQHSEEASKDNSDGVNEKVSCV

Broadly, the inhibition is the relative decrease from the control value, in per cent. As to `Cc1ccc2c(c1)c1c(n2CC#Cc2ccccn2)CCN(C)C1` [Compound No. 500, 2,3,4,5-tetrahydro-2,8-dimethyl-5-(3-(pyridin-2-yl)prop-2-ynyl)-1H-pyrido[4,3-b]indole], the inhibition at 1 µM was determined as 40% in test [1]; 48% in test [2]; 77% in test [3]; 18% in test [4]; 11% in test [5] (setting [6]).

For `C/C(=C\n1c2c(c3cc(Cl)ccc31)CN(C)CC2)c1ccccc1F` [Compound 213, (E)-8-chloro-5-(2-(2-fluorophenyl)prop-1-enyl)-2-methyl-2,3,4,5-tetrahydro-1H-pyrido[4,3-b]indole], the inhibition at 1 µM in test [1] turned out to be 98%; in test [2], 100%; in test [3], 102%; in test [4] it was 100%; in test [5] (setting [7]), 76%.

For the compound `Cc1ccc2c(c1)c1c(n2C#Cc2ccc(F)cc2)CCN(C)C1` [Compound No. 478, 5-((4-fluorophenyl)ethynyl)-2,8-dimethyl-2,3,4,5-tetrahydro-1H-pyrido[4,3-b]indole], the inhibition at 1 µM in test [1] is 99%; in test [2], 96%; in test [3], 110%; in test [4], 97%; in test [5] (setting [6]), 92%.

For `C/C(=C\n1c2c(c3cc(Cl)ccc31)CN(C)CC2)c1ccccc1` [compound 106, (E)-8-chloro-2,3,4,5-tetrahydro-2-methyl-5-(2-phenylprop-1-enyl)-1H-pyrido[4,3-b]indole], the inhibition at 1 µM in test [1] worked out at 98%; in test [2] it was 98%; in test [3] it was 98%; in test [4], 104%; in test [5] (setting [7]) it was 92%.

As to `Cc1ccc(C(O)Cn2c3c(c4cc(C)ccc42)CN(C)CC3)cc1` (racemic) [Compound 43, racemic-2-(1,2,3,4-tetrahydro-2,8-dimethylpyrido[4,3-b]indol-5-yl)-1-p-tolylethanol], the inhibition at 1 µM came to 100% in test [1]; 98% in test [2]; 96% in test [3]; 95% in test [4]; 87% in test [5] (setting [7]). For the same compound, the inhibition at 0.1 µM in test [3] came out at 81%; in test [4], 62%.

For the compound `CCOC(=O)/C=C(/Cn1c2c(c3cc(C)ccc31)CN(C)CC2)c1ccccc1` [Compound No. 347, (E)-ethyl 4-(2,8-dimethyl-3,4-dihydro-1H-pyrido[4,3-b]indol-5(2H)-yl)-3-phenylbut-2-enoate], the inhibition at 1 µM is 100% in test [1]; 101% in test [2]; 104% in test [3]; 101% in test [4]; 90% in test [5] (setting [7]).

As to `C/C(=C\n1c2c(c3cc(Cl)ccc31)CN(C)CC2)c1ccc(Cl)cc1` [Compound 100, (E)-8-chloro-5-(2-(4-chlorophenyl)prop-1-enyl)-2,3,4,5-tetrahydro-2-methyl-1H-pyrido[4,3-b]indole], the inhibition at 0.1 µM in test [1] is 97%; in test [3] it was 104%; in test [4], 62%. The inhibition at 1 µM came out at 101% in test [1]; 99% in test [2]; 97% in test [3]; 95% in test [4]; 87% in test [5] (setting [7]).

Regarding `C/C(=C\n1c2c(c3cc(C)ccc31)CN(C)CC2)c1ccc(F)cc1` [Compound 87, (E)-5-(2-(4-fluorophenyl)prop-1-enyl)-2,3,4,5-tetrahydro-2,8-dimethyl-1H-pyrido[4,3-b]indole], the inhibition at 0.1 µM is 100% in test [1], 101% in test [3] and 97% in test [4]. Besides, the inhibition at 1 µM in test [1] was found to be 99%; in test [2] it was 100%; in test [3], 100%; in test [4], 101%; in test [5] (setting [7]) it was 99%.
